Results reported in patent publication US5670506A, “Halogen, isothiocyanate or azide substituted xanthines” (Cell Therapeutics, Inc., priority 1993, dated 1997).

What was measured:
Type in all cases: cell-based
[1] = tested on: mast cells; experiment: mast cell degranulation, serotonin release assay
From the text: A serotonin release assay is utilized to study the utility of the inventive compounds for treatment of asthma and allergy. This assay measures mast cell degranulation, which is an early phase reaction to allergen challenge. Mast cells grown in tissue culture are first loaded with ^3 H serotonin, which is incorporated into the granules in the cells. The mast cells are sensitized with antigen specific monoclonal IgE, and then triggered to degranulate with the specific antigen (dinitrophenol bound to BSA (DNP)). When the cells degranulate, ^3 H Serotonin is released into the medium, and can be measured directly. The ability of the inventive compounds to inhibit the degranulation response is determined by the decrease in ^3 H Serotonin released in the presence of drug and is represented as % INHIBITION. The IC50 of any given compound is determined by the ability of that compound to inhibit degranulation by 50%.
Specifically, the serotonin release assay seeds 2×10^5 cells in 0.5 ml medium in duplicate for spontaneous release, IgE+DNP, IgE+DNP+EtOH (vehicle control), and inventive compounds. One μCi [^3H ]-Serotonin/ml (i.e., 0.5 μCi/well) (NEN Research Products, cat. #NET-398 Hydroxytryptamine Binoxalate, 5-[1,2-^3 H(N)]-(Serotonin Binoxalate, [1,2-^3 H(N)]-)) and 1 μl/ml IgE is added. The cells are incubated for 18 hours at 37° C. in 5% CO2, washed twice with 0.5 ml Isotonic Buffer (25 mM disodium PIPES pH 7.1,100 mM NaCl, 5 mM KCl, 5 mM glucose, 0.4 mM MgCl2, 1 mM CaCl2, 0.1% BSA), and sterile filtered. 250 μl Isotonic Buffer is added per well and the plates are equilibrated in an incubator for about 10 min. Drug is added and cells are activated with 40 ng/ml DNP-BSA (1 mg/ml Diluted 1:200 in Isotonic Buffer) for 45 minutes using 2 μl/250 μl. Spontaneous release is determined in incubated cells with 250 μl Isotonic Buffer for 45 minutes and the reaction is stopped by removing supernatant and centrifuging at ~4000 rpm in microfuge for 15 seconds to remove any detached cells. Released radiolableled serotonin is counted. To determine amount of ^3 H-serotonin incorporated into the cells, (a) remove Isotonic Buffer and lyse cells by adding 250 μl 1% Triton-X100 in PBS, (b) add to 5 ml scintillation fluid, (c) wash 2× with Triton/PBS, and (d) add washes to scintillation tube. Percent serotonin release is calculated by dividing the amount of released serotonin by the sum of incorporated plus released serotonin and correcting for spontaneous released serotonin. Compound inhibition is calculated by dividing the percent serotonin release in the presence of a compound by the percent serotonin release in the absence of the compound.
This assay is described above and provides an in vitro model for an allergy and asthma therapeutic compound.

[2] = tested on: mast cell line (PT-18); experiment: total PA mass in mast cell line stimulated by IgE and DNP; conditions: FIG. 13; IgE and DNP stimulation, in words
[3] = tested on: human lymphocytes; experiment: inhibition of blast formation from human lymphocytes stimulated by IL-2; conditions: Lymphocyte, FIG. 10, read-out: IC50, blastogenesis stimulated by IL-2
Description: (§1) This is a human in vitro assay for immunosuppressive activity of the inventive compounds.
(§2) A third assay measures an ability of an inventive compound to inhibit IL-2-induced proliferation of murine thymocytes. Thymus glands are obtained from 4-6 week old mice and plated as a single cell suspension into flat bottomed wells in RPMI 1640 medium supplemented with 10% fetal calf serum. The inventive compounds are added to appropriate wells and the cells are incubated for 1-2 hrs. Concanavilin A (ConA, 0.25 μg/ml) and IL-1 (20 ng/ml) are added and the plates are incubated for 4 days. Cell proliferation is determined as above. There are also variations for this assay that follow the same basic stimulation and measure inhibition of proliferation format. For example, splenocytes can be used instead of thymocytes to measure more of a B cell response than a T cell response (e.g., thymocytes) and stimulated by an anti-mu antibody (40 μg/ml), IL-4 or PMA (2.5 nM). Similarly, human lymphocytes can be used from normal human volunteers and stimulated with human IL-2 (100 U/ml, Genzyme) and/or anti-CD3 antibody (2.5 μg/ml, Boehinger Mannheim).
(§3) This example illustrates an experiment showing the effects of CT1525, CT1529 and CT1595 (see Table 1 above for chemical names) on inhibition of blast formation from human lymphocytes stimulated by IL-2 or an anti-CD3 antibody (FIG. 10). […]

[4] = tested on: human lymphocytes; experiment: inhibition of blast formation from human lymphocytes stimulated by anti-CD3 antibody; conditions: Lymphocyte, FIG. 10, read-out: IC50, blastogenesis stimulated by anti-CD3
Description: as §1, §2, §3

[5] = tested on: transformed cells (Ras 3T3) and normal 3T3 cells; experiment: cytotoxicity in transformed and normal 3T3 cells
Description: A similar experiment is shown in FIG. 9 for five inventive compounds (see Table 1 […] for chemical names) showing differential cytotoxicity for the same normal and transformed cells.
Each inventive compound is investigated for cytotoxicity to determine appropriate doses for biological activity assays and to prevent cytotoxic reactions in in vitro assays when characterizing activity. Cells (e.g., NIH-3T3, Ras transformed 3T3 cells, malignant melanoma LD2 cells, etc.) are added to microtiter plates and drug is added about two days after plating. Cell viability is determined using a fluorescent viability stain (e.g., 2',7'-bis-(2-carboroxyethyl)-5-(and -6)-carboxyfluorescein acetoxymethyl ester, BCECF excitation 488 nm and emission 525 nm) 24, 48 or 72 hours after addition of the drug.
This example illustrates a comparison of cytotoxicity determinations for CT1595 in transformed cells (Ras 3T3) and in normal 3T3 cells at drug doses of 1, 10 and 100 μM in in vitro cell culture conditions (FIG. 8). […] A similar experiment is shown in FIG. 9 for five inventive compounds (see Table 1 above for chemical names) showing differential cytotoxicity for the same normal and transformed cells.

Question: Which results are given for `Cn1cnc2c1c(=O)n(CCCCC(=O)CCl)c(=O)n2C` [CT1595, 1-(6-chloro-5-oxohexyl)-3,7-dimethylxanthine]?
Answer: inhibition at 50 µM ([1]; 50 μM): 44%; inhibition at 100 µM ([1]; 100 μM): 88%; IC50 for accumulation of PA [2]: low nanomolar range; IC50 [3]: < 5 µM; IC50 [4]: < 5 µM; differential cytotoxicity, transformed vs normal 3T3 cells ([5]; FIG. 8, 1, 10 and 100 μM): more cytotoxic for the cancer cell than the normal cell; cytotoxic activity, normal and transformed 3T3 cells ([5]; FIG. 9, five compounds): significant cytotoxic activity
